Results on one compound are retold here after patent US6624149B2, “Method for nucleic acid transfection of cells” (Genteric, Inc., priority 2000, dated 2003).

“And” between values parts separate entries of the source, which are not always exact repeats. Equal values may be shown once.

The test system of this assay is rat submandibular gland. As to the kind of experiment: Cationic liposome-mediated hGH gene delivery to rat submandibular gland. Also noted: human growth hormone protein expression, Trial 1 to Trial 8: unit not given here. It is filed as in vivo. The note with it: for human growth hormone protein expression, Average / human growth hormone protein expression, Trial 1 to Trial 8: one week post-administration; for human growth hormone protein expression, Trial 1 to Trial 8: individual glands, DOHBD:DOPE liposome, 175 micrograms pCMV.FOX.hGH per gland, listed as Zn. The protocol: In embodiments in which a liposome/transition metal/nucleic acid mixture was used, 200 μl of the liposome/transition metal/nucleic acid mixture was injected, infused, instilled or administered at the ductal orifice or directly into the duct at any point along its length. See Goldfine, Nature Biotechnology 15:1378, 1997. The liposome/transition metal/nucleic acid mixture was prepared by sequentially adding an appropriate amount of sterile water, liposome solution (3:1, N,N,N′,N′-tetramethyl-N,N′-bis(2-hydroxyethyl)-2,3-bis(9(z)-octadecenoyloxy)-1,4-butanediaminium iodide (DOHBD):DOPE), transition metal enhancer, and the plasmid DNA pCMV.FOX.hGH to a polypropylene tube.
Regardless of whether a liposome/transition metal/nucleic acid mixture or a nucleic acid/transition metal enhancer mixture was delivered, the tubing and mixture was kept in place for ten additional minutes after application of the mixture prior to removal. At 48 hours post atropine administration, the rats were anesthetized by intraperitoneal injection of pentobarbital (50 mg/kg). The right and left submandibular glands were surgically removed, and the tissues were assayed for any observable reporter gene (luciferase of hGH) expression using the methods described below.
In one embodiment, an appropriate mass of cationic lipid and the neutral lipid dioleoylphosphatidylethanolamine (DOPE) was added as solutions in chloroform to 1.9 mL sample vials to yield the desired molar ratio of cationic lipid:DOPE. The chloroform was removed via rotary evaporation at 37° C. The resulting thin lipid films were placed under vacuum overnight to insure that all traces of solvent have been removed. The lipid mixture was resuspended in 1 mL sterile water at 25° C. until the film is hydrated, and then vortex mixed to afford an emulsion. For the in vitro experiments, these emulsions were formulated as a cationic lipid concentration of 1 mM. For the in vivo experiments, the emulsions were formulated at a cationic lipid concentration of 3 mM.
To perform this study, cationic lipid/nucleic acid/zinc mixtures were prepared by mixing the appropriate amount of sterile water, cationic liposomes, zinc chloride and pCMV.FOX.hGH plasmid DNA in a polystyrene tube. Specifically, 40 microliters of a 3 mM 3:1 DOHBD:DOPE liposome mixture, 270 microliters of a 8.08 microgram/microliter pCMV.FOX.hGH plasmid DNA mixture, and an appropriate amount of a 70 mM zinc chloride mixture were added to a polystyrene tube containing a sufficient amount of water to give a final total volume of 2500 microliters. In this experiment, the final zinc chloride concentration was either 0.125 mM, 0.250 mM, or no zinc at all. The cationic lipid:DNA phosphate ratio in this study remained constant for all mixtures screened. Once prepared, 200 microliters of each mixture was instilled into the right and left submandibular glands of four male Sprague-Dawley rats. Thus, 175 micrograms of the plasmid DNA was instilled into each gland. After one week post-administration of the cationic lipid/nucleic acid/zinc mixtures, the salivary gland of the rats were extracted, mixed with a phosphate lysis buffer (10 mM, pH 8.0) and homogenized. The homogenate was then assayed for human growth hormone protein expression. […]

On to `[Cl-].[Cl-].[Zn+2]` [ZnCl2, zinc chloride], for which, under “[Zn] 0.125 mM”, the “human growth hormone protein expression, Average” value worked out at 505.6361; the “human growth hormone protein expression, Trial 1 to Trial 8” value is 452.1 and 360.8 and 261.7 and 355.7 and 517.2 and 575.6 and 943.5 and 1084. Moreover, for the setting “[Zn] 0.25 mM”, the “human growth hormone protein expression, Average” value is 464.7687; the “human growth hormone protein expression, Trial 1 to Trial 8” value was 857.731 and 753.3 and 272.6 and 315.3 and 604.3 and 449.9. Besides, the “enhancement of in vivo transfection compared to cationic liposome/nucleic acid mixture not containing zinc” value (rat submandibular gland) is recorded as “at least two”.
